tested on: A549 EGFR-WT; test: Cell proliferation inhibition experiment (CCK-8), A549; details: Homo sapiens, A549, 72 h, read-out: cell proliferation inhibition IC50 (μM) A549, 72 h, CCK-8

| SMILES | IC50 [µM] |
| --- | --- |
| CN1CCN(c2ccc(Nc3nc(N[C@H]4CC[C@H](CO)CC4)c4c(C(=O)c5ccc(F)cc5)c[nH]c4n3)cc2)CC1 [Example 42] | 1 to 2 |
| O=C(c1ccc(F)cc1)c1c[nH]c2nc(Nc3ccc(N4CCOCC4)cc3)nc(N[C@H]3CC[C@H](CO)CC3)c12 [Example 79] | 0.1 to 1 |
| Cn1cc(Nc2nc(N[C@H]3CC[C@H](CO)CC3)c3c(C(=O)c4ccc(F)cc4)c[nH]c3n2)cn1 [Example 110] | 0.1 to 1 |
| COc1nn(C)cc1Nc1nc(N[C@H]2CC[C@@H](CO)CC2)c2c(C(=O)c3ccc(F)cc3)c[nH]c2n1 [Example 116] | 1 to 2 |

same assay, conditions: Homo sapiens, A549, 72 h, read-out: cell proliferation inhibition IC50 (μM) A549, 72 h, CCK-8; Table 5 numeric

| SMILES | IC50 [µM] |
| --- | --- |
| O=C(c1cccc(F)c1)c1c[nH]c2nc(Nc3ccc(N4CCOCC4)cc3)nc(N[C@H]3CC[C@H](CO)CC3)c12 [Example 92] | 0.07 |

tested on: PC-9 EGFR-Del19; test: Cell proliferation inhibition experiment (CCK-8), PC-9; assay type: cell-based; details: Homo sapiens, 72 h
Source text: (§1) Inhibition rate %=[(A0−AS)/(A0−AC)]×100%.

| SMILES | IC50 [µM] |
| --- | --- |
| CN1CCN(c2ccc(Nc3nc(N[C@H]4CC[C@H](CO)CC4)c4c(C(=O)c5ccc(F)cc5)c[nH]c4n3)cc2)CC1 [Example 42] | < 0.1 |
| CN1CCN(c2ccc(Nc3nc(NC4CCCCC4O)c4c(C(=O)c5ccc(F)cc5)c[nH]c4n3)cc2)CC1 (stereo not drawn) [Example 43] | 0.1 to 1 |
| C=CC(=O)N1CC[C@H](Nc2nc(Nc3ccc(N4CCN(C)CC4)cc3)nc3[nH]cc(C(=O)c4ccccc4F)c23)C1 [Example 46] | < 0.1 |
| O=C(c1ccc(F)cc1)c1c[nH]c2nc(Nc3ccc(N4CCOCC4)cc3)nc(N[C@H]3CC[C@H](CO)CC3)c12 [Example 79] | 0.1 to 1 |
| O=C(c1cccc(F)c1)c1c[nH]c2nc(Nc3ccc(N4CCOCC4)cc3)nc(N[C@H]3CC[C@H](CO)CC3)c12 [Example 92] | 0.1 to 1 |
| Cn1cc(Nc2nc(N[C@H]3CC[C@H](CO)CC3)c3c(C(=O)c4ccc(F)cc4)c[nH]c3n2)cn1 [Example 110] | < 0.1 |
| COc1nn(C)cc1Nc1nc(N[C@H]2CC[C@@H](CO)CC2)c2c(C(=O)c3ccc(F)cc3)c[nH]c2n1 [Example 116] | < 0.1 |

tested on: H1975 EGFR-L858R/T790M; test: Cell proliferation inhibition experiment (CCK-8), H1975; assay type: cell-based; details: Homo sapiens, NCI-H1975, 72 h
Source text: as §1

| SMILES | IC50 [µM] |
| --- | --- |
| CN1CCN(c2ccc(Nc3nc(N[C@H]4CC[C@H](CO)CC4)c4c(C(=O)c5ccc(F)cc5)c[nH]c4n3)cc2)CC1 [Example 42] | 0.1 to 1 |
| CN1CCN(c2ccc(Nc3nc(NC4CCCCC4O)c4c(C(=O)c5ccc(F)cc5)c[nH]c4n3)cc2)CC1 (stereo not drawn) [Example 43] | 0.1 to 1 |
| C=CC(=O)N1CC[C@H](Nc2nc(Nc3ccc(N4CCN(C)CC4)cc3)nc3[nH]cc(C(=O)c4ccccc4F)c23)C1 [Example 46] | < 0.1 |
| O=C(c1ccc(F)cc1)c1c[nH]c2nc(Nc3ccc(N4CCOCC4)cc3)nc(N[C@H]3CC[C@H](CO)CC3)c12 [Example 79] | 0.1 to 1 |
| O=C(c1cccc(F)c1)c1c[nH]c2nc(Nc3ccc(N4CCOCC4)cc3)nc(N[C@H]3CC[C@H](CO)CC3)c12 [Example 92] | < 0.1 |
| COc1nn(C)cc1Nc1nc(N[C@H]2CC[C@@H](CO)CC2)c2c(C(=O)c3ccc(F)cc3)c[nH]c2n1 [Example 116] | 0.1 to 1 |

tested on: KC-0178:NCI-1975 EGFR-L858R/T790M/C797S; test: Cell proliferation inhibition experiment (CCK-8), KC-0178; assay type: cell-based; details: Homo sapiens, 72 h
Source text: as §1

| SMILES | IC50 [µM] |
| --- | --- |
| CN1CCN(c2ccc(Nc3nc(N[C@H]4CC[C@H](CO)CC4)c4c(C(=O)c5ccc(F)cc5)c[nH]c4n3)cc2)CC1 [Example 42] | 1 to 2 |
| O=C(c1ccc(F)cc1)c1c[nH]c2nc(Nc3ccc(N4CCOCC4)cc3)nc(N[C@H]3CC[C@H](CO)CC3)c12 [Example 79] | < 0.1 |
| Cn1cc(Nc2nc(N[C@H]3CC[C@H](CO)CC3)c3c(C(=O)c4ccc(F)cc4)c[nH]c3n2)cn1 [Example 110] | < 0.1 |
| COc1nn(C)cc1Nc1nc(N[C@H]2CC[C@@H](CO)CC2)c2c(C(=O)c3ccc(F)cc3)c[nH]c2n1 [Example 116] | 1 to 2 |

tested on: KC-1474:PC-9 EGFR-Del19/T790M/C797S; test: Cell proliferation inhibition experiment (CCK-8), KC-1474; assay type: cell-based; details: Homo sapiens, 72 h
Source text: as §1

| SMILES | IC50 [µM] |
| --- | --- |
| CN1CCN(c2ccc(Nc3nc(N[C@H]4CC[C@H](CO)CC4)c4c(C(=O)c5ccc(F)cc5)c[nH]c4n3)cc2)CC1 [Example 42] | < 0.1 |
| Cn1cc(Nc2nc(N[C@H]3CC[C@H](CO)CC3)c3c(C(=O)c4ccc(F)cc4)c[nH]c3n2)cn1 [Example 110] | 0.1 to 1 |
| COc1nn(C)cc1Nc1nc(N[C@H]2CC[C@@H](CO)CC2)c2c(C(=O)c3ccc(F)cc3)c[nH]c2n1 [Example 116] | 0.1 to 1 |

tested on: KC-1362 BaF3-EGFR D770-N771 ins NPG cells; test: Anti-proliferative activity on KC-1362 BaF3-EGFR D770-N771 ins NPG cells; assay type: cell-based; details: Ba/F3 EGFR

| SMILES | IC50 [nM] |
| --- | --- |
| CN1CCN(c2ccc(Nc3nc(NC4CC5(COC5)C4)c4c(C(=O)c5ccc(F)cc5)c[nH]c4n3)cc2)CC1 [Example 18] | 150 |
| CN1CCN(c2ccc(Nc3nc(N[C@H]4CC[C@H](CO)CC4)c4c(C(=O)c5ccc(F)cc5)c[nH]c4n3)cc2)CC1 [Example 42] | 35 |
| CN1CCN(c2ccc(Nc3nc(NC45CC6CC(CC(O)(C6)C4)C5)c4c(C(=O)c5ccc(F)cc5)c[nH]c4n3)cc2)CC1 [Example 70] | 54 |

target: EGFR D770-N771 ins NPG kinase (Homo sapiens (Human), UniProt P00533, INS770NPG); test: In-vitro enzyme experiment 1 (HTRF kinase assay), D770-N771 ins NPG kinase; assay type: biochemical; details: not given
Sequence (P00533 other isoform, or with tags, fused parts or gaps del 1-668/ins NPG behind 770 limits assumed): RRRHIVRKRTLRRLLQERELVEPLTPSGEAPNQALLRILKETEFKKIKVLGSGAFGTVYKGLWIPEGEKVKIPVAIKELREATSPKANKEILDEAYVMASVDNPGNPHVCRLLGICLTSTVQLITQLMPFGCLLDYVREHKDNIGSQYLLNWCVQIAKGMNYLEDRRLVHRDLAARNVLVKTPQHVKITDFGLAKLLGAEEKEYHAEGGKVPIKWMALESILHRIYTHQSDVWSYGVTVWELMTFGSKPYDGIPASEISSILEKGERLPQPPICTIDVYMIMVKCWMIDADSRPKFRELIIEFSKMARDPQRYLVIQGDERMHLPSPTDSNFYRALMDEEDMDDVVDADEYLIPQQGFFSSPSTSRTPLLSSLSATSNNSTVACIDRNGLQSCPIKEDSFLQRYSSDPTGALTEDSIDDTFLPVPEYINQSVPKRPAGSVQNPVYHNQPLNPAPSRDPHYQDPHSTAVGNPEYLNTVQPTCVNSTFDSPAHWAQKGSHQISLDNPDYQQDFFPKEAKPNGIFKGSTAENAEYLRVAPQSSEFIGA

| SMILES | IC50 [nM] |
| --- | --- |
| CN1CCN(c2ccc(Nc3nc(NC4CC5(COC5)C4)c4c(C(=O)c5ccc(F)cc5)c[nH]c4n3)cc2)CC1 [Example 18] | 28.2 |
| CN1CCN(c2ccc(Nc3nc(N[C@H]4CC[C@H](CO)CC4)c4c(C(=O)c5ccc(F)cc5)c[nH]c4n3)cc2)CC1 [Example 42] | 4.44 |
| CN1CCN(c2ccc(Nc3nc(NC45CC6CC(CC(O)(C6)C4)C5)c4c(C(=O)c5ccc(F)cc5)c[nH]c4n3)cc2)CC1 [Example 70] | 6.55 |

tested on: HCC827 EGFR-Del19; test: Cell proliferation inhibition experiment (CCK-8), HCC827; assay type: cell-based; details: Homo sapiens, 72 h
Source text: as §1

| SMILES | IC50 [µM] |
| --- | --- |
| CN1CCN(c2ccc(Nc3nc(N[C@H]4CC[C@H](CO)CC4)c4c(C(=O)c5ccc(F)cc5)c[nH]c4n3)cc2)CC1 [Example 42] | 0.1 to 1 |
| CN1CCN(c2ccc(Nc3nc(NC4CCCCC4O)c4c(C(=O)c5ccc(F)cc5)c[nH]c4n3)cc2)CC1 (stereo not drawn) [Example 43] | 0.1 to 1 |
| C=CC(=O)N1CC[C@H](Nc2nc(Nc3ccc(N4CCN(C)CC4)cc3)nc3[nH]cc(C(=O)c4ccccc4F)c23)C1 [Example 46] | 0.1 to 1 |
| O=C(c1ccc(F)cc1)c1c[nH]c2nc(Nc3ccc(N4CCOCC4)cc3)nc(N[C@H]3CC[C@H](CO)CC3)c12 [Example 79] | < 0.1 |
| O=C(c1cccc(F)c1)c1c[nH]c2nc(Nc3ccc(N4CCOCC4)cc3)nc(N[C@H]3CC[C@H](CO)CC3)c12 [Example 92] | < 0.1 |
| Cn1cc(Nc2nc(N[C@H]3CC[C@H](CO)CC3)c3c(C(=O)c4ccc(F)cc4)c[nH]c3n2)cn1 [Example 110] | < 0.1 |

target: EGFR-Del19/T790M/C797S kinase (Homo sapiens, UniProt P00533, C797S/T790M, form not given); test: In-vitro enzyme experiment 2 (HTRF kinase assay), EGFR Del19 T790M C797S; assay type: biochemical; details: read-out: enzyme inhibition IC50 (nM) EGFR-Del19/T790M/C797S
Sequence (P00533 25-1210 T790M/C797S limits assumed, form open): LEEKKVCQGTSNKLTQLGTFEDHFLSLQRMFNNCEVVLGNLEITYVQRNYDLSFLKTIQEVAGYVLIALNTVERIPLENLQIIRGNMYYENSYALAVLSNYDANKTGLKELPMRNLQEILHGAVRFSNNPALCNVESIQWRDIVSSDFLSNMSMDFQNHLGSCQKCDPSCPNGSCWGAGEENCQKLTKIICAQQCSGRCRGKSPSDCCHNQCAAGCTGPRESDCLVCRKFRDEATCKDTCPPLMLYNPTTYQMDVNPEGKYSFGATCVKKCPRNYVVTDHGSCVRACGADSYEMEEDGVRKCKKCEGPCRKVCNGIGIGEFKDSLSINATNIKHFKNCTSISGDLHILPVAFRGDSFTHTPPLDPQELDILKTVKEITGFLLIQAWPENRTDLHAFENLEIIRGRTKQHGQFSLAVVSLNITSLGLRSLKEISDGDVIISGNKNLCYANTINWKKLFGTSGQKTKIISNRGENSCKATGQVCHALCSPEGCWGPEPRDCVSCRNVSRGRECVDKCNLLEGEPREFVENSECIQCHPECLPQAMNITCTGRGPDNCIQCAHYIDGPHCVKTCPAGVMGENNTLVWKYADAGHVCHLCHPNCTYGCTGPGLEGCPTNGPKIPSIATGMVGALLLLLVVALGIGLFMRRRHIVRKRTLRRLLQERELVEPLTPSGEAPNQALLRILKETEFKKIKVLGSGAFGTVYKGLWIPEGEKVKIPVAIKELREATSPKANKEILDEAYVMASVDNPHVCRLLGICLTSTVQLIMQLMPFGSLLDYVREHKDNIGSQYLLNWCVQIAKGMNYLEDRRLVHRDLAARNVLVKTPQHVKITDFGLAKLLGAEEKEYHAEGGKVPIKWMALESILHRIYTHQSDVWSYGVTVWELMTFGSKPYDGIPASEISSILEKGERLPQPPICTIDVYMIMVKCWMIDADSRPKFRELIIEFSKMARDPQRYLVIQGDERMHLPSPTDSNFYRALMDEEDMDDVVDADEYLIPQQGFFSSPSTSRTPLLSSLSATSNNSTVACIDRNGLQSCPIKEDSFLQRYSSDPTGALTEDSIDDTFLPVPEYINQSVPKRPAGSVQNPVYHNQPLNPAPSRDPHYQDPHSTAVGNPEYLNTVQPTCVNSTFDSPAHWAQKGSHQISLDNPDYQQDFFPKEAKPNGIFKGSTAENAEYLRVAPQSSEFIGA
Method: The specific experiment was as follows: • 1. […] Test method of activity of compound • a) a compound diluent was transferred to each well of an assay plate (784075, Greiner) using Echo 550; • b) the assay plate was sealed and centrifuged at 1,000 g for 1 min; • c) 2×EGFR (D770-N771 ins NPG T790M) was prepared in a 1× kinase buffer; • d) 5 μl of the 2×EGFR (D770-N771 ins NPG T790M) was added to a 384-well assay plate (784075, Greiner); • e) the assay plate was centrifuged at 1,000 g for 30 s and incubated at room temperature for 10 min; • f) 2× TK-substrate-biotin (2 μM) and ATP were added to the 1× kinase buffer and mixed; • g) the reaction was started after adding 5 μl of the TK-substrate-biotin (2 μM) and ATP mixture; • h) the assay plate was centrifuged at 1,000 g for 30 s; and the assay plate was sealed and incubated at room temperature for 40 min; • i) 4× Sa-XL 665 was prepared in an HTRF detection buffer; • j) 5 μl of the Sa-XL 665 and 5 μl of a TK-antibody-cryptate were added to each well of the assay plate; • k) the assay plate was centrifuged at 1,000 g for 30 s and incubated at room temperature for 1 h; and • l) fluorescence signals at 615 nm (cryptate) and 665 nm (XL665) were read on an Envision 2104 reader. • 3. Data analysis • 3.1 Calculation of ratio (665/615 nm) of each well • 3.2 Calculation of inhibition rate
[formula] • 3.3 Calculation of IC50 value of compound and drawing dose-effect curve of compound • IC50 values were calculated using GraphPad 6.0 by applying a non-linear regression curve (dose-effect relationship-variable slope) of the logarithm of the compound concentration versus the inhibition rate.
The preparation of the kinase buffer, the test method of the activity of the compound, and the data analysis referred to the relevant definitions in example 117, wherein step c) of the test method of the activity of the compound was replaced by preparing 2×EGFR Del19 T790M C797S in the 1× kinase buffer.

| SMILES | IC50 [nM] |
| --- | --- |
| CN1CCN(c2ccc(Nc3nc(NC4CC5(COC5)C4)c4c(C(=O)c5ccc(F)cc5)c[nH]c4n3)cc2)CC1 [Example 18] | 10 to 100 |
| CN1CCN(c2ccc(Nc3nc(NC4CCCCC4O)c4c(C(=O)c5ccc(F)cc5)c[nH]c4n3)cc2)CC1 (stereo not drawn) [Example 43] | 100 to 600 |
| CN1CCN(c2ccc(Nc3nc(NC45CC6CC(CC(O)(C6)C4)C5)c4c(C(=O)c5ccc(F)cc5)c[nH]c4n3)cc2)CC1 [Example 70] | 10 to 100 |
| Cn1cc(Nc2nc(N[C@H]3CC[C@H](CO)CC3)c3c(C(=O)c4ccc(F)cc4)c[nH]c3n2)cn1 [Example 110] | 10 to 100 |
| COc1nn(C)cc1Nc1nc(N[C@H]2CC[C@@H](CO)CC2)c2c(C(=O)c3ccc(F)cc3)c[nH]c2n1 [Example 116] | 10 to 100 |
